Source: PubChem BioAssay AID328 (DTP/NCI, 2004)
“And” between values parts separate entries of the source, which are not always exact repeats. Identical values can stand only once. Inconclusive results and toxic doses are left out. Residues, ends and D or L forms follow the SMILES beside them.

System: BDF1 mice, P388 leukemia ip, median survival T/C
Assay: NCI In Vivo Anticancer Drug Screen. Data for tumor model P388 Leukemia (intraperitoneal) in B6D2F1 (BDF1) mice
Details: endpoint: median survival time, higher = longer survival
In short: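 Read-out is survival of treated animals expressed relative to the vehicle group, as a T/C ratio.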

[1] = dose: 50.0 mg/kg/injection, schedule: Q04DX003 (ip), vehicle: saline with Tween-80
[2] = dose: 100.0 mg/kg/injection, schedule: Q04DX003 (ip), vehicle: saline with Tween-80
[3] = dose: 200.0 mg/kg/injection, schedule: Q04DX003 (ip), vehicle: saline with Tween-80
[4] = dose: 100.0 mg/kg/injection, schedule: Q04DX003 (ip), vehicle: Klucel (hydroxypropylcellulose) (HPC)
[5] = dose: 200.0 mg/kg/injection, schedule: Q04DX003 (ip), vehicle: Klucel (hydroxypropylcellulose) (HPC)
[6] = dose: 12.5 mg/kg/injection, schedule: Q04DX003 (ip), vehicle: Klucel (hydroxypropylcellulose) (HPC)
[7] = dose: 25.0 mg/kg/injection, schedule: Q04DX003 (ip), vehicle: Klucel (hydroxypropylcellulose) (HPC)
[8] = dose: 50.0 mg/kg/injection, schedule: Q04DX003 (ip), vehicle: Klucel (hydroxypropylcellulose) (HPC)

## Cc1cccc2c(Nc3ccc(NS(C)(=O)=O)cc3)c3ccccc3nc12
dose: 0.88 mg/kg/injection, schedule: Q01DX009 (ip), vehicle: saline with Tween-80
  T/C: 123 % of control
dose: 2.93 mg/kg/injection, schedule: Q04DX003 (ip), vehicle: saline with Tween-80
  T/C: 118 % of control
dose: 3.0 mg/kg/injection, schedule: Q01DX009 (ip), vehicle: saline with Tween-80
  T/C: 153 % of control
dose: 5.0 mg/kg/injection, schedule: Q01DX009 (ip), vehicle: saline with Tween-80
  T/C: 166 % of control
dose: 10.0 mg/kg/injection, schedule: Q01DX009 (ip), vehicle: saline with Tween-80
  T/C: 203 % of control
dose: 20.0 mg/kg/injection, schedule: Q01DX009 (ip), vehicle: saline with Tween-80
  T/C: 197 % of control
dose: 20.0 mg/kg/injection, schedule: Q04DX003 (ip), vehicle: saline with Tween-80
  T/C: 150 % of control
dose: 22.0 mg/kg/injection, schedule: Q04DX003 (ip), vehicle: saline with Tween-80
  T/C: 168 % of control
dose: 30.0 mg/kg/injection, schedule: Q04DX003 (ip), vehicle: saline with Tween-80
  T/C: 154 % of control
dose: 33.0 mg/kg/injection, schedule: Q04DX003 (ip), vehicle: saline with Tween-80
  T/C: 181 % of control
[1]
  T/C: 245 % of control
dose: 75.0 mg/kg/injection, schedule: Q04DX003 (ip), vehicle: saline with Tween-80
  T/C: 259 % of control
[2]
  T/C: 204 % of control
[3]
  T/C: 272 % of control

## N#Cc1ccccc1[N+](=O)[O-]
dose: 4.0 mg/kg/injection, schedule: Q01DX010 (ip), vehicle: carboxymethylcellulose (CMC)
  T/C: 100 % of control
dose: 16.0 mg/kg/injection, schedule: Q01DX010 (ip), vehicle: carboxymethylcellulose (CMC)
  T/C: 100 % of control

## C=C1C(=O)OC2CC(C)C3(O)OC(C)(CC(OC(=O)C(C)C)C12)CC3O (configuration not stated)
dose: 13.0 mg/kg/injection, schedule: Q01DX009 (ip), vehicle: saline
  T/C: 120 % of control
dose: 25.0 mg/kg/injection, schedule: Q01DX009 (ip), vehicle: saline
  T/C: 110 % of control
dose: 50.0 mg/kg/injection, schedule: Q01DX009 (ip), vehicle: saline
  T/C: 95 % of control

## O=C(Nc1ccccc1)Nc1ccc([N+](=O)[O-])cc1
[4]
  T/C: 105 % of control
[5]
  T/C: 110 % of control
dose: 400.0 mg/kg/injection, schedule: Q04DX003 (ip), vehicle: Klucel (hydroxypropylcellulose) (HPC)
  T/C: 105 % of control

## FC(F)(F)C(F)(F)c1nc2nc(Cl)c(Cl)nc2[nH]1
dose: 25.0 mg/kg/injection, schedule: Q01DX009 (ip), vehicle: other
  T/C: 100 % of control
dose: 50.0 mg/kg/injection, schedule: Q01DX009 (ip), vehicle: other
  T/C: 114 % of control

## O=C(/C=C/c1ccc2c(c1)OCO2)c1ccc([N+](=O)[O-])cc1
dose: 6.25 mg/kg/injection, schedule: Q04DX003 (ip), vehicle: Klucel (hydroxypropylcellulose) (HPC)
  T/C: 100 % of control
[6]
  T/C: 100 % of control
[7]
  T/C: 100 % of control
[8]
  T/C: 86 % of control
dose: 100.0 mg/kg/injection, schedule: Q01DX001 (ip), vehicle: Klucel (hydroxypropylcellulose) (HPC)
  T/C: 105 % of control
dose: 200.0 mg/kg/injection, schedule: Q01DX001 (ip), vehicle: Klucel (hydroxypropylcellulose) (HPC)
  T/C: 90 % of control
dose: 400.0 mg/kg/injection, schedule: Q01DX001 (ip), vehicle: Klucel (hydroxypropylcellulose) (HPC)
  T/C: 92 % of control

## O=C(O)CCSSCCC(=O)O
[4]
  T/C: 95 % of control
[5]
  T/C: 100 % of control

## CCOc1cccc2c1C(=O)c1c(O)c3c(c(O)c1C2=O)C[C@@](O)(C(C)=O)C[C@@H]3OC1CC(N)C(O)C(C)O1 (some centres not stated)
dose: 6.25 mg/kg/injection, schedule: Q04DX003 (ip), vehicle: water
  T/C: 123 % of control
dose: 50.0 mg/kg/injection, schedule: Q04DX003 (ip), vehicle: water
  T/C: 108 % of control

## Cc1cccc(S(=O)(=O)F)c1
dose: 37.5 mg/kg/injection, schedule: Q01DX009 (ip), vehicle: Klucel (hydroxypropylcellulose) (HPC)
  T/C: 104 % of control
dose: 75.0 mg/kg/injection, schedule: Q01DX009 (ip), vehicle: Klucel (hydroxypropylcellulose) (HPC)
  T/C: 95 % of control
dose: 150.0 mg/kg/injection, schedule: Q01DX009 (ip), vehicle: Klucel (hydroxypropylcellulose) (HPC)
  T/C: 90 % of control

## Nc1ncnc2c1cnn2Cc1ccc(Cl)cc1
[6]
  T/C: 118 % of control
dose: 16.5 mg/kg/injection, schedule: Q04DX003 (ip), vehicle: Klucel (hydroxypropylcellulose) (HPC)
  T/C: 91 % of control and 100 % of control
dose: 25.0 mg/kg/injection, schedule: Q01DX009 (ip), vehicle: Klucel (hydroxypropylcellulose) (HPC)
  T/C: 90 % of control
[7]
  T/C: 91 % of control and 100 % of control
dose: 37.5 mg/kg/injection, schedule: Q04DX003 (ip), vehicle: Klucel (hydroxypropylcellulose) (HPC)
  T/C: 95 % of control
dose: 50.0 mg/kg/injection, schedule: Q01DX009 (ip), vehicle: Klucel (hydroxypropylcellulose) (HPC)
  T/C: 95 % of control
[8]
  T/C: 104 % of control

## N=C1CCCC1C(=S)SC(CC(N)=O)C(=O)O (configuration not stated)
dose: 50.0 mg/kg/injection, schedule: Q01DX009 (ip), vehicle: saline with Tween-80
  T/C: 108 % of control
dose: 100.0 mg/kg/injection, schedule: Q01DX009 (ip), vehicle: saline with Tween-80
  T/C: 112 % of control
dose: 200.0 mg/kg/injection, schedule: Q01DX009 (ip), vehicle: saline with Tween-80
  T/C: 112 % of control

## CC(=O)NC(Cc1ccccc1)C(=O)NC(CCCN=C(N)N)C(=O)O (stereo not drawn) (Ac-Phe-Arg-OH; configuration not given here)
dose: 50.0 mg/kg/injection, schedule: Q01DX005 (ip), vehicle: saline
  T/C: 108 % of control
dose: 100.0 mg/kg/injection, schedule: Q01DX005 (ip), vehicle: saline
  T/C: 115 % of control
dose: 200.0 mg/kg/injection, schedule: Q01DX005 (ip), vehicle: saline
  T/C: 105 % of control

## CC(C)n1c2c([n+](C)c1/C=C/c1ccccc1)C(=O)c1ccccc1C2=O
dose: 0.5 mg/kg/injection, schedule: Q01DX010 (ip), vehicle: saline
  T/C: 109 % of control
dose: 1.0 mg/kg/injection, schedule: Q01DX009 (ip), vehicle: Klucel (hydroxypropylcellulose) (HPC)
  T/C: 105 % of control
dose: 2.0 mg/kg/injection, schedule: Q01DX010 (ip), vehicle: saline
  T/C: 122 % of control

## IP(c1ccccc1)(c1ccccc1)(c1ccccc1)N1C2CCCCC21 (configuration not stated)
dose: 0.07 mg/kg/injection, schedule: Q01DX009 (ip), vehicle: saline
  T/C: 104 % of control and 113 % of control
dose: 0.15 mg/kg/injection, schedule: Q01DX009 (ip), vehicle: saline
  T/C: 150 % of control and 156 % of control
dose: 0.23 mg/kg/injection, schedule: Q04DX003 (ip), vehicle: saline
  T/C: 109 % of control
dose: 0.31 mg/kg/injection, schedule: Q01DX009 (ip), vehicle: saline
  T/C: 150 % of control
dose: 0.46 mg/kg/injection, schedule: Q04DX003 (ip), vehicle: saline
  T/C: 118 % of control
dose: 0.6 mg/kg/injection, schedule: Q01DX009 (ip), vehicle: saline
  T/C: 166 % of control
dose: 0.62 mg/kg/injection, schedule: Q04DX003 (ip), vehicle: saline
  T/C: 113 % of control
dose: 0.93 mg/kg/injection, schedule: Q04DX003 (ip), vehicle: saline
  T/C: 118 % of control
dose: 1.2 mg/kg/injection, schedule: Q01DX009 (ip), vehicle: saline
  T/C: 156 % of control

## N#Cc1cnccn1
dose: 100.0 mg/kg/injection, schedule: Q01DX009 (ip), vehicle: saline
  T/C: 100 % of control
dose: 200.0 mg/kg/injection, schedule: Q01DX009 (ip), vehicle: saline
  T/C: 100 % of control
dose: 400.0 mg/kg/injection, schedule: Q01DX009 (ip), vehicle: saline
  T/C: 87 % of control

## CCCCCCCC(O)CCCCCCC
dose: 100.0 mg/kg/injection, schedule: Q01DX009 (ip), vehicle: other
  T/C: 115 % of control
dose: 200.0 mg/kg/injection, schedule: Q01DX009 (ip), vehicle: other
  T/C: 110 % of control
dose: 400.0 mg/kg/injection, schedule: Q01DX009 (ip), vehicle: other
  T/C: 100 % of control

## CCOC(=O)NC1CCC2c3ccccc3C([N+](=O)[O-])(C1)c1ccccc12 (configuration not stated)
[1]
  T/C: 100 % of control
[2]
  T/C: 104 % of control
[3]
  T/C: 100 % of control
